Experimental data published in patent US20080248511A1, “METHODS TO QUENCH LIGHT FROM OPTICAL REACTIONS” (priority 2007, published 2008).

How the values were obtained:
firefly luciferase = firefly luciferase (Photinus pyralis, UniProt P08659); test: Non-detergent compound screen, firefly luciferase (Example 6); format: biochemical; settings: 0.5% Tergitol NP-9, 0.03% BDDABr; for remaining activity at 10 µM / remaining activity at 100 µM / remaining activity at 1000 µM: read-out: Retained Firefly Luciferase Value (%)
Protocol: (§1) Each compound was diluted into 200 mM MOPS pH 6.7, 4 μM MgSO4, 1 mM CDTA, 0.5% Tergitol NP-9, 0.05% Mazu-DF-204, 0.03% BDDABr, 30 mM thiourea, 1 mM bis-(2-mercaptoethylsulfone) (BMS), 4 μM CoA, and 1 μM 5-fluoroluciferin. Just prior to the luciferase reaction, 0.1% Prionex® (Pentapharm) and 2.9 μM coelenterazine-h (Promega) were added to each solution.
(§2) The firefly luciferase and Renilla luciferase enzymes were diluted as described in Examples 3 and 5. The luciferase reactions were initiated by adding 50 μl of the firefly luciferase and Renilla luciferase enzyme solution to 50 μl of reagent solution. The reactions were performed as described above. The retained Renilla and firefly luciferase-mediated luminescence and selectivity values for each inhibitor tested are listed in Table 6.

Renilla luciferase = molecular target: T1, Renilla luciferase (Renilla reniformis, UniProt P27652); test: Non-detergent compound screen, Renilla luciferase (Example 6); format: biochemical; settings: for remaining activity at 10 µM / remaining activity at 100 µM / remaining activity at 1000 µM / Retained Renilla Luciferase Value (%): 0.5% Tergitol NP-9, 0.03% BDDABr; for remaining activity at 10 µM / remaining activity at 100 µM / remaining activity at 1000 µM: read-out: Retained Renilla Luciferase Value (%)
T1 sequence (P27652 1-311): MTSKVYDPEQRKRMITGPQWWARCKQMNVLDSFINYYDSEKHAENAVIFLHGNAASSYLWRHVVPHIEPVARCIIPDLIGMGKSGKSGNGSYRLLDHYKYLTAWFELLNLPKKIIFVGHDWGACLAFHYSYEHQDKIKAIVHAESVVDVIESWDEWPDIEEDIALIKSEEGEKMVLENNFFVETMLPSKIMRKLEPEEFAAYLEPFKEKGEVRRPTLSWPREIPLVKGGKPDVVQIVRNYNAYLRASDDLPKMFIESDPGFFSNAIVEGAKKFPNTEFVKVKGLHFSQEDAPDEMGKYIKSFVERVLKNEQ
Protocol: as §1, §2

firefly luciferase, sequence (P08659 whole entry): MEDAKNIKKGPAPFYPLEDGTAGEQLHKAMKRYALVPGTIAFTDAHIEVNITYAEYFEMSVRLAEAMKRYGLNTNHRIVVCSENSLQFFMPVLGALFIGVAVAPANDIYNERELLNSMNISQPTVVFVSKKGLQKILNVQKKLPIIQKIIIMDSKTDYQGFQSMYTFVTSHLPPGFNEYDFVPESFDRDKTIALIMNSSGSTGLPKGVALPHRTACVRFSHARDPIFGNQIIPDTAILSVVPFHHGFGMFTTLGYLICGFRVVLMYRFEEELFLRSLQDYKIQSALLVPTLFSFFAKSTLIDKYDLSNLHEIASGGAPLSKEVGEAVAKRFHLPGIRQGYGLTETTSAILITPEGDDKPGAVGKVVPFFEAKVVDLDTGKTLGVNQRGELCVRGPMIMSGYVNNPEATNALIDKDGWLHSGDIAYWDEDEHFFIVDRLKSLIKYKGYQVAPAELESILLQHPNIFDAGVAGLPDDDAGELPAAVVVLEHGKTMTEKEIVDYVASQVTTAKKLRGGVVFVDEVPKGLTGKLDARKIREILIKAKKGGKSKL

Compound | remaining activity at 10 µM (firefly luciferase; inhibitor 10 μM) [%] | remaining activity at 100 µM (firefly luciferase; inhibitor 100 μM) [%] | remaining activity at 1000 µM (firefly luciferase; inhibitor 1000 μM) [%] | inhibitor of Renilla luciferase, grade in words (Renilla luciferase) | Selectivity Value (Renilla luciferase; inhibitor 10 μM) | remaining activity at 10 µM (Renilla luciferase; inhibitor 10 μM) [%] | Selectivity Value (Renilla luciferase; inhibitor 100 μM) | remaining activity at 100 µM (Renilla luciferase; inhibitor 100 μM) [%] | Selectivity Value (Renilla luciferase; inhibitor 1000 μM) | remaining activity at 1000 µM (Renilla luciferase; inhibitor 1000 μM) [%] | Retained Firefly Luciferase Value (%) (firefly luciferase; inhibitor 10 μM) | Retained Firefly Luciferase Value (%) (firefly luciferase; inhibitor 100 μM) | Retained Firefly Luciferase Value (%) (firefly luciferase; inhibitor 1000 μM) | Retained Renilla Luciferase Value (%) (Renilla luciferase; inhibitor 10 μM) | Retained Renilla Luciferase Value (%) (Renilla luciferase; inhibitor 100 μM) | Retained Renilla Luciferase Value (%) (Renilla luciferase; inhibitor 1000 μM)
COc1ccc(CNC(=O)/C=C/c2ccc3c(ccc[n+]3C)c2)cc1.[I-] [Compound 3061, (E)-6-(3-(4-methoxybenzylamino)-3-oxoprop-1-enyl)-1-methylquinolinium iodide] | 103 | 100 | 82 | inhibitors of Renilla luciferase | 1.1 | 96 | 1.8 | 85 | 2.3 | 36 | – | – | – | – | – | –
COc1ccc(CCNC(=O)/C=C/c2ccc3[nH]cc(CCN(C)C)c3c2)cc1 [Compound 3062, (E)-3-(3-(2-(dimethylamino)ethyl)-1H-indol-5-yl)-N-(4-methoxyphenethyl)acrylamide] | 100 | 98 | 99 | excellent inhibitors of Renilla luciferase | 1.4 | 74 | 3.3 | 30 | 19.4 | 5.1 | – | – | – | – | – | –
CN(C)CCc1c[nH]c2ccc(/C=C/C(=O)NCc3ccc([N+](=O)[O-])cc3)cc12 [Compound 3063, (E)-3-(3-(2-(dimethylamino)ethyl)-1H-indol-5-yl)-N-(4-nitrobenzyl)acrylamide] | 102 | 102 | 102 | excellent inhibitors of Renilla luciferase | 1.6 | 63 | 5.4 | 19 | 33 | 3.1 | – | – | – | – | – | –
CN(C)CCc1c[nH]c2ccc(/C=C/C(=O)N3CCOCC3)cc12 [Compound 3064, (E)-3-(3-(2-(dimethylamino)ethyl)-1H-indol-5-yl)-1-morpholinoprop-2-en-1-one] | 102 | 101 | 103 | excellent inhibitors of Renilla luciferase | 1.3 | 81 | 2.9 | 35 | 11.4 | 9 | – | – | – | – | – | –
COc1ccc(CNC(=O)/C=C/c2ccc3[nH]cc(CN(C)C)c3c2)cc1 [Compound 3067, (E)-3-(3-((dimethylamino)methyl)-1H-indol-5-yl)-N-(4-methoxybenzyl)acrylamide] | 100 | 99 | 100 | excellent inhibitors of Renilla luciferase | 1.3 | 79 | 2.9 | 34 | 14.3 | 7 | – | – | – | – | – | –
COc1ccc(CNC(=O)/C=C/c2ccc3[nH]cc(CCN(C)C)c3c2)cc1 [Compound 3068, (E)-3-(3-(2-(dimethylamino)ethyl)-1H-indol-5-yl)-N-(4-methoxybenzyl)acrylamide] | 101 | 102 | 102 | excellent inhibitors of Renilla luciferase | 2.5 | 40 | 10.2 | 10 | 48.6 | 2.1 | – | – | – | – | – | –
CCCCCCCC[N+](C)(C)CCc1c[nH]c2ccc(/C=C/C(=O)NCc3ccc(OC)cc3)cc12.[I-] [Compound 3070, (E)-N-(2-(5-(3-(4-methoxybenzylamino)-3-oxoprop-1-enyl)-1H-indol-3-yl)ethyl)-N,N-dimethyloctan-1-ammonium iodide] | – | – | – | excellent inhibitors of Renilla luciferase | 3.3 | – | 16 | – | 78.2 | – | 99 | 96 | 86 | 30 | 6 | 1.1
COc1ccc(CNC(=O)/C=C/c2ccc3[nH]cc(CCCN(C)C)c3c2)cc1 [Compound 3071, (E)-3-(3-(3-(dimethylamino)propyl)-1H-indol-5-yl)-N-(4-methoxybenzyl)acrylamide] | 101 | 101 | 100 | excellent inhibitors of Renilla luciferase | 1.8 | 57 | 6.7 | 15 | 40 | 2.5 | – | – | – | – | – | –
COc1cc(CNC(=O)/C=C/c2ccc3[nH]cc(CCN(C)C)c3c2)cc(OC)c1OC [Compound 3072, (E)-3-(3-(2-(dimethylamino)ethyl)-1H-indol-5-yl)-N-(3,4,5-trimethoxybenzyl)acrylamide] | 101 | 101 | 101 | inhibitors of Renilla luciferase | 1 | 101 | 1.1 | 95 | 1.8 | 55.2 | – | – | – | – | – | –
COc1cc(OC)c(CNC(=O)/C=C/c2ccc3[nH]cc(CCN(C)C)c3c2)c(OC)c1 [Compound 3073, (E)-3-(3-(2-(dimethylamino)ethyl)-1H-indol-5-yl)-N-(2,4,6-trimethoxybenzyl)acrylamide] | 101 | 100 | 101 | inhibitors of Renilla luciferase | 0.99 | 102 | 1.5 | 87 | 2.9 | 34.5 | – | – | – | – | – | –
CCCCCC[N+](C)(C)CCc1c[nH]c2ccc(/C=C/C(=O)NCc3ccc(OC)cc3)cc12.[I-] [Compound 3078, (E)-N-(2-(5-(3-(4-methoxybenzylamino)-3-oxyprop-1-enyl)-1H-indol-3-yl)ethyl)-N,N-dimethylhexan-1-aminium iodide] | – | – | – | – | 20 | – | 100 | – | 990 | – | 100 | 100 | 99 | 5.0 | 1.0 | 0.1
